Measured values reported in publication PMC11249239 (PLOS ONE, 2024).
Where two headings read alike, the source gives them in different places.

Tests used:
HDAC1 = biological target: T1, HDAC1 (Homo sapiens, UniProt Q13547); test: In vitro HDAC isoform inhibition, purified recombinant HDAC1; assay type: biochemical; conditions: purified recombinant protein; ± margin of error of 95% confidence interval; read-out: IC50 HDAC inhibition activity in vitro, HDAC 1
T1 construct: purchased PBS Bioscience [sic] (San Diego, CA); host or cells: Sf9 insect cells / baculovirus
T1 sequence (Q13547 whole entry, canonical isoform): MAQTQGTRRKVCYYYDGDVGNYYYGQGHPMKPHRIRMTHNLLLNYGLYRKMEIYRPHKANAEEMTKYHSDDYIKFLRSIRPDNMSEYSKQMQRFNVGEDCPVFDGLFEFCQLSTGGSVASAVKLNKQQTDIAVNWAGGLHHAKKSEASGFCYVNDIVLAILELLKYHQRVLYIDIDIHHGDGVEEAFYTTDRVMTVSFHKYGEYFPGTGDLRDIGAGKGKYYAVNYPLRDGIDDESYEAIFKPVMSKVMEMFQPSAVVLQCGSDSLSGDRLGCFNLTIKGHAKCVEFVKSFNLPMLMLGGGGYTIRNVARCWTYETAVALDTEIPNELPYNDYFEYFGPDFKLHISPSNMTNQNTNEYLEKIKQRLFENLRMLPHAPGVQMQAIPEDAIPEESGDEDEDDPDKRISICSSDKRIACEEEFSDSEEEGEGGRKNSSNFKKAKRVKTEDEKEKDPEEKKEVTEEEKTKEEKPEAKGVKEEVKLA
From the text: In vitro HDAC enzyme inhibition assays utilized HeLa cell extract for pan-HDACs with the substrate Fluor-Lys following the manufacturer’s protocol (BIOMOL/ENZO, Plymouth Meeting, PA). For isoform assays, purified HDAC1, HDAC3, and HDAC6 recombinant proteins produced by expressing epitope-tagged full-length proteins in the sf9 baculovirus expression vector system were purchased from PBS Bioscience (San Diego, CA). […] The reaction commenced with the addition of HDAC substrate at room temperature and proceeded for 30 minutes. Termination of the reaction was achieved by adding 50 μL of Fluor de Lys (TM) Assay Developer. The fluorophore was excited at 360 nm and emitted light at 460 nm. Relative fluorescence was measured using a FlexStation II plate reader (Molecular Devices, Sunnyvale, CA).

T47D (ER+) cells = test: Cell growth inhibition (CCK8 cytotoxicity assay), T47D; assay type: cell-based; conditions: 48 h treatment, read-out: Average EC50 ± SD, cell growth inhibition
[1] = system: ER+ BC cells (MCF-7 and T47D); test: Cell growth inhibition, ER+ breast cancer cells stated together; assay type: cell-based
From the text: Prism-GraphPad software was used to analyze data.

Cc1[nH]c2ccccc2c1C1=C(c2c(C)[nH]c3ccccc23)C(=O)N(CCCCCCC(=O)NO)C1=O [SP-1-303]
IC50 (HDAC1): 12 ± 1 nM
EC50 (T47D (ER+) cells): 321 ± 27 nM
EC50 (T47D (ER+) cells; Homo sapiens, T47D, 48 h): 320 nM
inhibition of ER+ BC cell growth compared to ER- TNBC cell growth [1]: 4-8 fold
potency in ER+ cell lines relative to SAHA ([1]; more potent than SAHA): 10 fold
EC50 ([1]; range over MCF-7 and T47D cells, read-out: effective growth inhibition concentrations (EC50)): 320 to 340 nM
